Source: ChEMBL document CHEMBL1152144, “In situ blood-brain barrier permeability of a C-10 paclitaxel carbamate” (Bioorg Med Chem Lett, 2008)

Test system: Brain
Test: Blood-brain barrier permeability in B6C3 mouse brain assessed as increase in drug level at 0.1 uCi, iv relative to [14C]paclitaxel
Format: ADME, organism-based
Conditions: in vivo

Structure (SMILES)	fold change (FC)
CC(=O)O[C@@]12CO[C@@H]1C[C@H](O)[C@@]1(C)C(=O)[C@H](OC(=O)N[14CH2][14CH2]O)C3=C(C)[C@@H](OC(=O)[C@H](O)[C@@H](NC(=O)c4ccccc4)c4ccccc4)C[C@@](O)([C@@H](OC(=O)c4ccccc4)[C@H]21)C3(C)C	3
CC(=O)O[C@@]12CO[C@@H]1C[C@H](O)[C@@]1(C)C(=O)[C@H](OC(=O)CCC(=O)O)C3=C(C)[C@@H](OC(=O)[C@H](O)[C@@H](NC(=O)c4ccccc4)c4ccccc4)C[C@@](O)([C@@H](OC(=O)c4ccccc4)[C@H]21)C3(C)C	6
